Experimental data reported in patent US7759101B2, “Ginsenoside glycosidases hydrolyzing ginsenoside sugar moieties and uses thereof” (priority 2000, dated 2010).

Legend:
[1] = system: Ginsenoside Glycosidases from Yeast; experiment: Hydrolysis of Rd with ginsenoside glycosidases from yeast; type: biochemical, Candida sp. FFCCDL-2 g; details: 0.5% Rd in acetate buffer, 60° C., 12 hours
Procedure: Candida sp. FFCCDL-2 g (available from Food Fermentation Culture Collection of Dalian Institute of Light Industry) was cultured with shaking at 30° C. for 56 hours in a medium containing 2% by weight of ginseng extracts and 8% by weight of malt extracts. Cells were removed by centrifugation, after which (NH4)2SO4 powder was added to 500 ml of the cell-free supernatant to 65% saturation. The solution was dialyzed against 0.01M acetate buffer pH 5. Insolubles were removed by centrifugation, and 25 ml of crude enzyme solution was obtained.
10 ml of the enzyme solution was allowed to react with 10 ml of 0.5% Rd in acetate buffer at 60° C. for 12 hours. […] The enzymes can also hydrolyze β-(1→2)-glucoside of Rg3 to give Rh2.

[2] = system: ginsenoside glycosidases from Tremella; experiment: Hydrolysis of Rb1 with ginsenoside glycosidases from Tremella; type: biochemical, Tremella sp. FFCCDL-12 g; details: 1% Rb1 in acetate buffer containing 20% ethanol, 40° C., 20 hours
Procedure: Tremella sp. FFCCDL-12 g (available from Food Fermentation Culture Collection of Dalian Institute of Light Industry) was cultured on a solid medium containing 125 g of ginseng powder, 374 g of wheat bran and 500 ml of water for 5 to 7 days. Then 2500 ml of 0.01 M acetate buffer pH 5.0 was added to the solid medium to stand for 2 hours. Insolubles were removed by centrifugation and approximately 2000 ml liquid was obtained. (NH4)2SO4 powder was added to the liquid with stirring to 70% saturation. The solution was stored at 4° C. overnight and centrifuged to collect the pellets. The pellets were resuspended and the suspension was dialyzed against 0.01M acetate buffer pH 5. Then the solution was diluted in 0.01 M acetate buffer to a volume of 150 ml. Impurities were removed by centrifugation, and crude enzyme solution was obtained.
10 ml of the enzyme solution was allowed to react with 10 ml of 1% Rb1 in acetate buffer containing 20% ethanol at 40° C. for 20 hours. […] The optimal reaction temperature for the enzymes is 50° C. and the optimal pH is pH 5.5.

[3] = system: Enzymes from Malts; experiment: Hydrolysis of Rb1 with enzymes from malts; type: biochemical, malt; details: 1% Rb1 solution, pH 5, 20% ethanol, 40° C., 20 hours
Procedure: 200 g of malt was ground and added to 1000 ml of 0.01 M acetate buffer pH 5 for extraction under room temperature for two hours. The mixture was filtrated. To the supernatant 3 volumes of ethanol was added and stand overnight. Precipitates were collected to which 50 ml of 0.01 M acetate buffer pH 5 was added. Insolubles were removed and enzyme solution was obtained. 10 ml of the enzyme solution was allowed to react with 10 ml of 1% Rb1 solution (in 0.01 M acetate buffer pH 5 containing 20% ethanol) at 40° C. for 20 hours. The product was detected by TLC. As a result, more than 95% Rb1 was converted to Rd, F2, C-K and Rg3 and the like.

Row | SMILES | Rd converted to ginsenoside F2 [1] [%] | C-K in the product mixture [2] [%] | F2 in the product mixture [2] [%] | Rd in the product mixture [2] [%] | Rb1 converted to Rd, F2, C-K and Rg3 and the like [3]
1 | CC(C)=CCC[C@](C)(O[C@@H]1O[C@H](CO)[C@@H](O)[C@H](O)[C@H]1O)[C@H]1CC[C@]2(C)[C@@H]1[C@H](O)C[C@@H]1[C@@]3(C)CC[C@H](O[C@@H]4O[C@H](CO)[C@@H](O)[C@H](O)[C@H]4O[C@@H]4O[C@H](CO)[C@@H](O)[C@H](O)[C@H]4O)C(C)(C)[C@@H]3CC[C@]12C [Rd, ginsenoside Rd] | 73 | – | – | – | –
2 | CC(C)=CCC[C@](C)(O[C@@H]1O[C@H](CO[C@@H]2O[C@H](CO)[C@@H](O)[C@H](O)[C@H]2O)[C@@H](O)[C@H](O)[C@H]1O)[C@H]1CC[C@]2(C)[C@@H]1[C@H](O)C[C@@H]1[C@@]3(C)CC[C@H](O[C@@H]4O[C@H](CO)[C@@H](O)[C@H](O)[C@H]4O[C@@H]4O[C@H](CO)[C@@H](O)[C@H](O)[C@H]4O)C(C)(C)[C@@H]3CC[C@]12C [Rb1, ginsenoside Rb1] | – | 35 | 40 | 25 | more than 95%
